pIC50: −log10 of the molar value. Each block holds one molecule with its values, some of them ahead of it.
Experiments:
[1] = system: A549 cells (human non-small cell lung cancer cell), induced senescent with Cisplatin; assay: in vitro killing of induced senescent A549 cells (CCK-8); type: cell-based; conditions: induced senescent A549 cell model, FIG. 1A
Source text: A. The killing results of some selected compounds in the in vitro compound library screening on the induced senescent A549 cell model. Wherein, MZ-1, dBET6, ARV-825, I-BET726, I-BET151, and INCB057643 are all BET inhibitors; A1331852 and A1155463 are novel Bcl-xL inhibitors; Dasatinib, Quercetin, Fisetin, Curcumin are the familiar active drugs or natural products.
B. Comparison of the killing effects of three Bcl-xL inhibitors on the induced senescent A549 cell model. A549 represents the normal uninduced A549 cell group; and A549-CDDP represents the senescent A549 cell group induced with Cisplatin (CDDP) in vitro.
(§1) Induction of the Cellular Senescence

[2] = liver microsomal metabolic stability, canine; conditions: canine; Fu and RB assumed to be 1
Protocol: (§2) Hepatic Microsomal Metabolic Stability
(§3) A13bGa1 was co-incubated with the mouse, rat, canine, monkey and human […] and the incubation medium at a final drug concentration of 1 μM in the incubation system for 60 minutes. Samples were taken and analyzed at time points 0, 15, 30, 45 and 60 minutes during the incubation. The reaction was terminated by adding an amount of acetonitrile solution containing the internal standard. […] The residual percentage, half-life, intrinsic clearance, amplified clearance, hepatic clearance and hepatic extraction ratio were determined. The entire experiment was performed in triplicate. All data calculations were performed by Microsoft Excel software. Peak areas were detected by extracting the ionic spectrum. The in vitro half-life (t1/2) of the parent compound was detected by fitting the natural logarithm of the percentage elimination of the parent compound linearly to time.
(§4) The in vitro intrinsic clearance (in μL/min/mg protein) was calculated using the following equation: in vitro CLint=kV/N
(§5) The amplified clearance (in mL/min/kg) was calculated using the following equation: Amplified CLint=kV/N×the amplification factor
(§6) The hepatic clearance (in mL/min/kg) was calculated using the following equation: The predicted hepatic CLH=(Q×Fu/RB×the amplified CLint)/(Q+Fu/RB×the amplified CLint) • V=the incubation volume per well (0.2 mL); • N=the total amount of protein (mg) • Q=the hepatic blood flow (mL/min/kg) • Fu=the plasma free rate (assumed to be 1) • RB=the whole blood partition coefficient (assumed to be 1)
(§7) The hepatic uptake rate was calculated using the following equation:
(§8) The hepatic extraction ratio (ER)=(the predicted hepatic CLH)/Q

[3] = liver microsomal metabolic stability, mouse; conditions: Fu and RB assumed to be 1
Protocol: as §2, §3, §4, §5, §6, §7, §8

[4] = liver microsomal metabolic stability, rat; conditions: Fu and RB assumed to be 1
Protocol: as §2, §3, §4, §5, §6, §7, §8

[5] = liver microsomal metabolic stability, monkey; conditions: Fu and RB assumed to be 1
Protocol: as §2, §3, §4, §5, §6, §7, §8

[6] = liver microsomal metabolic stability, human; conditions: Fu and RB assumed to be 1
Protocol: as §2, §3, §4, §5, §6, §7, §8

[7] = system: senescent A549 cells; assay: cell killing activity assay, senescent A549 cells (Example 7); type: cell-based, human; conditions: for selective killing of the senescent cells: A549-induced senescence model, three days, CCK-8, FIG. 7
Protocol: as §1
(§9) Cell Killing Activity Assay
(§10) Preparation of the cell plates: The non-senescent, and the induced senescent HEF cells and A549 cells were taken respectively, digested with trypsin, and centrifuged at 1000 rmp for 5 minutes. The supernatants were removed, and the cells were resuspended in fresh DMEM medium containing 10% foetal bovine serum for counting. The cell density was adjusted so that the density of the non-senescent cells was at 4000 cells/100 μL and the density of the senescent cells was at 7000 cells/100 μL. The cell suspension was added to the 96-well transparent cell culture plates at 100 μL per well. Note that the edge wells of the 96-well plate were not used for the test wells, and 300 μL PBS is added separately to reduce the medium evaporation. The cell-spread 96-well plates were put back into the incubator at 37 °C for the overnight incubation until the cells adhered to the wall.
Formulation of the drug concentration gradients: After the cells adhered to the wall on the second day, the small molecule compounds (d-12, d-11, and d-4) to be tested for activity are ready to be added. […] 3 parallel replicate wells were set up for each test drug concentration. The 96-well plate was put back into the incubator at 37 °C, and the cell survival was tested after three days.
Detection of the cell survival after the drug treatment using the CCK-8 method: Three days after the addition of the drug, the well plate was removed, the supernatant was discarded, and 100 μL of the pre-prepared CCK-8 working solution was added to each well. The CCK-8 working solution was obtained by diluting the CCK8 stock solution (C0041, Beyotime) with the serum-free DMEM medium in 10-fold volume. The 96-well plate added with the CCK-8 working solution was put back to the incubator at 37 °C and incubated for 0.5-2 hours. The plate was taken out to determine the absorbance value (OD value) of each well at the wavelength of 450 nm. The cell viability in each experimental group was calculated. […]

[8] = system: senescent HEF cells; assay: cell killing activity assay, senescent HEF cells (Example 7); type: cell-based, human; conditions: HEF-induced senescence model, three days, CCK-8, FIG. 7
Protocol: as §1, §9
as §10, with “Note that the edge wells of the 96-well plate were not used for the test wells, and 300 μL PBS is added separately to reduce the medium evaporation. The cell-spread 96-well plates were put back into the incubator at 37 °C for the overnight incubation until the cells adhered to the wall.” left out
(§11) Formulation of the drug concentration gradients: After the cells adhered to the wall on the second day, the small molecule compounds (d-12, d-11, and d-4) to be tested for activity are ready to be added. […]
(§12) Detection of the cell survival after the drug treatment using the CCK-8 method: Three days after the addition of the drug, the well plate was removed, the supernatant was discarded, and 100 μL of the pre-prepared CCK-8 working solution was added to each well. […] The plate was taken out to determine the absorbance value (OD value) of each well at the wavelength of 450 nm. The cell viability in each experimental group was calculated. […]

[9] = system: senescent cells (A549 and HEF); assay: cell killing activity assay, senescent A549 and HEF cell models (Example 7); type: cell-based, human; conditions: FIG. 7
Protocol: as §1, §9
as §10, with “Note that the edge wells of the 96-well plate were not used for the test wells, and 300 μL PBS is added separately to reduce the medium evaporation. The cell-spread 96-well plates were put back into the incubator at 37 °C for the overnight incubation until the cells adhered to the wall.” left out
as §11, §12

[10] = system: non-senescent HEF cells; assay: cell killing activity assay, non-senescent HEF cells (Example 7); type: cell-based, human; conditions: highest concentration (25 μM)
Protocol: as §1, §9
as §10, with “Note that the edge wells of the 96-well plate were not used for the test wells, and 300 μL PBS is added separately to reduce the medium evaporation. The cell-spread 96-well plates were put back into the incubator at 37 °C for the overnight incubation until the cells adhered to the wall.” left out
as §11, §12

[11] = system: non-senescent A549 cells; assay: cell killing activity assay, non-senescent A549 cells (Example 7); type: cell-based, human; conditions: non-senescent A549, highest concentration (25 μM)
Protocol: as §1, §9
as §10, with “Note that the edge wells of the 96-well plate were not used for the test wells, and 300 μL PBS is added separately to reduce the medium evaporation. The cell-spread 96-well plates were put back into the incubator at 37 °C for the overnight incubation until the cells adhered to the wall.” left out
as §11, §12

SMILES: CN(C)CC#Cc1ccc(OCCCc2sc(N3CCc4cccc(C(=O)Nc5nc6ccccc6s5)c4C3)nc2C(=O)O)c(F)c1 [Compound A1155463]
- senescent cell killing activity and selectivity, compound screening [1]: good senescent cell killing activity and selectivity in vitro

- The predicted intrinsic hepatic clearance Clint [2]: 30.44 mL/min/kg
- The predicted intrinsic hepatic clearance Clint [3]: 87.82 mL/min/kg
- The predicted intrinsic hepatic clearance Clint [4]: 52.33 mL/min/kg
- The predicted intrinsic hepatic clearance Clint [5]: 42.08 mL/min/kg
- The predicted intrinsic hepatic clearance Clint [6]: 20.16 mL/min/kg
SMILES: O=c1ccc2ccc(O)cc2o1 [7-hydroxycoumarin, reference compound]

SMILES: Cc1c(-c2ccc(N3CCc4cccc(C(=O)Nc5nc6ccccc6s5)c4C3)nc2C(=O)OC(Cc2cn(CCCN3CCOCC3)nn2)c2ccc(O[C@@H]3O[C@H](CO)[C@H](O)[C@H](O)[C@H]3O)c([N+](=O)[O-])c2)cnn1CC12CC3CC(CC(C3)C1)C2 (stereo partly drawn) [d-12]
- selective killing of the senescent cells [7]: selective killing of the senescent cells
- pIC50 ([7]; Homo sapiens, 72 h, Cisplatin-induced senescent A549, three days, CCK-8): ~5.16
- selective killing of the senescent cells [8]: selective killing of the senescent cells
- relative activity in killing the senescent cells among the three molecules [9]: relatively more active in killing the senescent cells
- killing of the non-senescent cells [10]: none of the three molecules killed the non-senescent cells
- killing of the non-senescent cells [11]: none of the three molecules killed the non-senescent cells

SMILES: Cc1ncsc1-c1ccc(CNC(=O)[C@@H]2C[C@@H](O)CN2C(=O)[C@@H](NC(=O)COCCOCCOCCNC(=O)C[C@@H]2N=C(c3ccc(Cl)cc3)c3c(sc(C)c3C)-n3c(C)nnc32)C(C)(C)C)cc1 [MZ1]
- senescent cell killing activity and selectivity, compound screening [1]: better in vitro killing activity

SMILES: CC(=O)OC[C@H]1O[C@@H](Oc2ccc(C(Cc3cn(CCCN4CCOCC4)nn3)OC(=O)c3nc(N4CCc5cccc(C(=O)Nc6nc7ccccc7s6)c5C4)ccc3-c3cnn(CC45CC6CC(CC(C6)C4)C5)c3C)cc2[N+](=O)[O-])[C@H](OC(C)=O)[C@@H](OC(C)=O)[C@H]1OC(C)=O (stereo partly drawn) [d-11]
- selective killing of the senescent cells [7]: selective killing of the senescent cells
- selective killing of the senescent cells [8]: selective killing of the senescent cells
- killing of the non-senescent cells [10]: none of the three molecules killed the non-senescent cells
- killing of the non-senescent cells [11]: none of the three molecules killed the non-senescent cells

SMILES: Cc1sc2c(c1C)C(c1ccc(Cl)cc1)=N[C@@H](CC(=O)NCCCCCCCCNC(=O)COc1cccc3c1C(=O)N(C1CCC(=O)NC1=O)C3=O)c1nnc(C)n1-2 (stereo partly shown) [dBET6]
- senescent cell killing activity and selectivity, compound screening [1]: better in vitro killing activity

SMILES: Cc1sc2c(c1C)C(c1ccc(Cl)cc1)=N[C@@H](CC(=O)Nc1ccc(OCCOCCOCCOCCNc3cccc4c3C(=O)N(C3CCC(=O)NC3=O)C4=O)cc1)c1nnc(C)n1-2 (stereo partly shown) [ARV825]
- senescent cell killing activity and selectivity, compound screening [1]: better in vitro killing activity

Source: patent US20260345582A1, “PRODRUG FOR ANTI-AGING RELATED DISEASES AND USE METHOD THEREOF” (Beijing SunCell Bio-Medical Co., Ltd., priority 2022, published 2026)
